Measured values published in ChEMBL document CHEMBL1151457, “Colistin heteroresistance in acinetobacter and its association with previous colistin therapy” (Antimicrob Agents Chemother, 2008).
The source made the active and inactive calls. The rule behind the calls is not given here.

What was measured:
Assay type in all cases: functional, organism-based
Acinetobacter [1] = test: Antibacterial activity against heteroresistant Acinetobacter baumannii-calcoaceticus complex isolated from total cumulative patients preexposed to 325 to 900 mg of drug after 20 to 24 hrs by broth microdilution method
Acinetobacter [2] = test: Antibacterial activity against heteroresistant Acinetobacter baumannii-calcoaceticus complex isolated from total cumulative patients preexposed to 325 to 900 mg of drug at 2 ug/ml after 20 to 24 hrs by broth microdilution method
Acinetobacter [3] = test: Antimicrobial activity against susceptible-Acinetobacter baumannii-calcoaceticus complex isolated from patients after 20 to 24 hrs by broth microdilution method
Acinetobacter [4] = test: Antibacterial activity against heteroresistant Acinetobacter baumannii-calcoaceticus complex isolated from total cumulative patients preexposed to 325 to 900 mg of drug assessed as colony forming unit at 8 ug/ml after 20 to 24 hrs by broth microdilution method
Acinetobacter [5] = test: Antibacterial activity against Acinetobacter baumannii-calcoaceticus complex assessed as colony forming unit at 8 ug/ml after 20 to 24 hrs by broth microdilution method
Acinetobacter [6] = test: Antimicrobial activity against heteroresistant-Acinetobacter baumannii-calcoaceticus complex isolated from patients after 20 to 24 hrs by broth microdilution method
Acinetobacter [7] = test: Antibacterial activity against heteroresistant Acinetobacter baumannii-calcoaceticus complex isolated from total cumulative patients preexposed to 325 to 900 mg of drug at 4 ug/ml after 20 to 24 hrs by broth microdilution method
Acinetobacter [8] = test: Antibacterial activity against heteroresistant Acinetobacter baumannii-calcoaceticus complex isolated from total cumulative patients preexposed to 325 to 900 mg of drug measured after two passages with 8 ug/ml of drug on sheep blood plates by broth microdilution method

CC1(C)[C@H](C(=O)O)N2C(=O)C[C@H]2S1(=O)=O was tested, and the Activity (Acinetobacter [1]) was “Active”.
With COLISTIN the Activity (Acinetobacter [2]) was “inactive”, the MIC (Acinetobacter [3]) was < 1 mg/L and the Activity (Acinetobacter [4]) was 0.000211%. The Activity (Acinetobacter [5]) was 5.3e-05%, the MIC (Acinetobacter [6]) was > 8 mg/L and the Activity (Acinetobacter [7]) was “inactive”. The MIC (Acinetobacter [8]) was > 16 mg/L.
In the case of GENTAMICIN, the Activity (Acinetobacter [1]) is reported as “Active”.
